Experimental data as given in patent publication US7538098B2, “19-nor-vitamin D analogs with 1,2 or 3,2 heterocyclic ring” (Wisconsin Alumni Research Foundation, priority 2006, dated 2009).
“Also recorded” adds a separate entry of the source.

How the values were obtained:
[1] = system: 24-hydroxylase (24Ohase) gene promoter in ROS 17/2.8 (bone) cells; assay: In vitro transcription assay (luciferase reporter); format: cell-based; settings: FIG. 3; for Transcriptional activity, result in words: 24-hydroxylase (CYP-24) promoter luciferase reporter; for EC50: 24-hydroxylase promoter luciferase reporter, read-out: EC50, transcriptional activity in bone cells
Experimental: Transcription activity was measured in ROS 17/2.8 (bone) cells that were stably transfected with a 24-hydroxylase (24Ohase) gene promoter upstream of a luciferase reporter gene (Arbour et al., 1998). Cells were given a range of doses. Sixteen hours after dosing the cells were harvested and luciferase activities were measured using a luminometer. RLU=relative luciferase units

[2] = target: T1, full-length recombinant rat vitamin D receptor (Rattus norvegicus, UniProt P13053); assay: Vitamin D receptor competitive binding with [3H]-1,25(OH)2D3; settings: FIG. 1; for Ki: full-length recombinant rat VDR, read-out: Ki, competition with [3H]-1,25(OH)2D3 for binding to the vitamin D receptor
T1 construct: Full-length recombinant rat receptor was expressed in E. coli BL21 (DE3) Codon Plus RIL cells; histidine tag (C); made in house; host or cells: E. coli BL21 (DE3) Codon Plus RIL
T1 sequence (P13053 1-423): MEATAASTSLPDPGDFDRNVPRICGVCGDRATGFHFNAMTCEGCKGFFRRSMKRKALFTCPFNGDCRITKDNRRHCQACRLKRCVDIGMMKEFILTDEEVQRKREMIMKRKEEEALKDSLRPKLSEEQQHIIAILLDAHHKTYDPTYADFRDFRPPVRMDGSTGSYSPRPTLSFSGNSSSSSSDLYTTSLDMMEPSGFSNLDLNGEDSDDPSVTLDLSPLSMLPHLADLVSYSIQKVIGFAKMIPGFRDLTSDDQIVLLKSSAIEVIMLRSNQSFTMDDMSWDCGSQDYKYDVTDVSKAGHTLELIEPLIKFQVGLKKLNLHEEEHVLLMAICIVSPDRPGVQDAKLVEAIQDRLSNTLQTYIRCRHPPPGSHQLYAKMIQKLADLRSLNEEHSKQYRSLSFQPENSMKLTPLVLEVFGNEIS
Experimental: Full-length recombinant rat receptor was expressed in E. coli BL21 (DE3) Codon Plus RIL cells and purified to homogeneity using two different column chromatography systems. The first system was a nickel affinity resin that utilizes the C-terminal histidine tag on this protein. The protein that was eluted from this resin was further purified using ion exchange chromatography (S-Sepharose
Fast Flow). Aliquots of the purified protein were quick frozen in liquid nitrogen and stored at −80° C. until use. For use in binding assays, the protein was diluted in TEDK50 (50 mM Tris, 1.5 mM EDTA, pH7.4, 5 mM DTT, 150 mM KCI) with 0.1% Chaps detergent. The receptor protein and ligand concentration was optimized such that no more than 20% of the added radiolabeled ligand was bound to the receptor.
Radiolabeled and unlabeled ligands were added to 100 mcl of the diluted protein at a final ethanol concentration of ≦10%, mixed and incubated overnight on ice to reach binding equilibrium. The following day, 100 mcl of hydroxylapatite slurry (50%) was added to each tube and mixed at 10-minute intervals for 30 minutes. The hydroxylapaptite was collected by centrifugation and then washed three times with Tris-EDTA buffer (50 mM Tris, 1.5 mM EDTA, pH 7.4) containing 0.5% Titron X-100. After the final wash, the pellets were transferred to scintillation vials containing 4 ml of Biosafe II scintillation cocktail, mixed and placed in a scintillation counter. Total binding was determined from the tubes containing only radiolabeled ligand.

[3] = system: Human promyelocytic leukemia (HL60) cells; assay: HL-60 differentiation (nitro blue tetrazolium reduction); format: cell-based; settings: FIG. 2; for EC50: Homo sapiens, HL-60
Experimental: The study drugs were dissolved in ethanol and the concentrations determined using UV spectrophotometry. Serial dilutions were prepared so that a range of drug concentrations could be tested without changing the final concentration of ethanol (≦0.2%) present in the cell cultures.
Human promyelocytic leukemia (HL60) cells were grown in RPMI-1640 medium containing 10% fetal bovine serum. The cells were incubated at 37° C. in the presence of 5% CO2.
HL60 cells were plated at 1.2×10^5 cells/ml. Eighteen hours after plating, cells in duplicate were treated with drug. Four days later, the cells were harvested and a nitro blue tetrazolium reduction assay was performed (Collins et al., 1979; J. Exp. Med. 149:969-974). The percentage of differentiated cells was determined by counting a total of 200 cells and recording the number that contained intracellular black-blue formazan deposits. Verification of differentiation to monocytic cells was determined by measuring phagocytic activity (data not shown).

D-sufficient CD-1 mice [4] = assay: Bone calcium mobilization, 2nd in vivo study (D-sufficient mice); settings: single intraperitoneal injection, two doses, 72 hours; FIG. 5
Experimental: (§1) 6-7 week old female CD-1 mice were purchased from Harlan (Indianapolis, Ind.). The animals were group housed and fed a purified diet containing 0.47% calcium. (Suda et al 1970 J. Nutrition). After a 5-7 day acclimation period, the animals were assigned to treatment groups (n=5-6/group) and given a single dose of the designated analogues by intraperitoneal injection. Blood was collected for serum calcium concentration analyses immediately prior to dose administration and 72 hours following dose delivery. Serum calcium were analyzed as described above.
(§2) In vivo data were analyzed by one-way ANOVA followed by pairwise comparisons when significant overall differences were detected. Post-hoc analyses includes, Tukey's, Scheffe's, and Fisher's LSD tests. Only differences (p<0.05) that were present in two out of the three post-hoc tests were considered significant.

D-sufficient CD-1 mice [5] = assay: Bone calcium mobilization, 3rd in vivo study (routes of administration); settings: FIG. 6
From the text: as §1, with “groups (n=5/group)” for “groups (n=5-6/group)”, “intraperitoneal injection or oral gavage.” for “intraperitoneal injection.”, “analyses at various timepoints” for “analyses immediately prior to dose administration and 72 hours”, “calcium was” for “calcium were”
as §2

D-deficient CD-1 mice = assay: Bone calcium mobilization, 1st in vivo study (D-deficient mice); settings: for Bone calcium mobilization activity (serum calcium change), overall: single intraperitoneal injection, D-deficient CD-1 mice, FIG. 4
Experimental: Female, CD-1 mice (6 weeks old) were purchased from Harlan Sprague-Dawley. Upon arrival, the animals were placed in a room with filtered lighting and fed a purified, D-deficient diet (Suda et al 1970 J. Nutrition) for 17 weeks. […] Serum calcium was measured by diluting with 0.1% lanthum chloride and reading the absorbance using an atomic absorption spectrometer. The change in serum calcium from pre-dose values (baseline) is reported.
as §2
Calcium mobilization from bone in vitamin D-deficient animals.

Ki [2] [nM]	EC50 [3] [nM]	VDR binding activity relative to 1,25-(OH)2D3 ([2]; less active than 1,25-(OH)2D3)	Structure (SMILES)	Transcriptional activity, result in words [1]	VDR binding, result in words [2]	HL-60 cell differentiation, result in words [3]	Serum calcium change in D-sufficient mice (D-sufficient CD-1 mice [4])	Onset of serum calcium increase compared to 1,25(OH)2D3 (D-sufficient CD-1 mice [5])	Serum calcium increase by route of administration (D-sufficient CD-1 mice [5]; oral gavage vs. intraperitoneal injection)	Calcemic response 48 hours after the dose (D-deficient CD-1 mice; D-deficient mice, analog doses exceeding thirty times that of the natural hormone, 48 hours)	Bone calcium mobilization activity (serum calcium change), overall (D-deficient CD-1 mice)	EC50 [1] [nM]
> 10000	1000		C[C@H](CCCC(C)(C)O)[C@H]1CC[C@H]2/C(=C/C=C3\C[C@@H](O)C4=CCCO[C@@H]4C3)CCC[C@]12C [REV-B]	essentially no transcriptional activity; also recorded: lacks activity; also recorded: inactive	does not bind to the VDR; also recorded: little binding activity for VDR	lacks activity in cellular differentiation; also recorded: considerably less active than 1,25(OH)2D3	remarkable in vivo activity of REV-B to raise blood calcium levels	significant delay	Both routes of administration are effective at causing an increase in serum calcium; however, intraperitoneal injection is more effective than oral gavage	markedly more active	considerable bone calcium mobilization activity	
30	100	3 orders of magnitude	C[C@H](CCCC(C)(C)O)[C@H]1CC[C@H]2/C(=C/C=C3/C[C@@H](O)C4=CCCO[C@@H]4C3)CCC[C@]12C [REV-A]	weak transcriptional activity; also recorded: much less transcriptional activity than 1α,25-dihydroxyvitamin D3		considerably less active than 1,25(OH)2D3	no significant increase in serum calcium					30

Structure (SMILES)	Ki [2] [nM]	EC50 [3] [nM]	VDR binding activity relative to 1,25-(OH)2D3 ([2]; less active than 1,25-(OH)2D3)	Transcriptional activity, result in words [1]	VDR binding, result in words [2]	HL-60 cell differentiation, result in words [3]	Serum calcium change in D-sufficient mice (D-sufficient CD-1 mice [4])	Onset of serum calcium increase compared to 1,25(OH)2D3 (D-sufficient CD-1 mice [5])	Serum calcium increase by route of administration (D-sufficient CD-1 mice [5]; oral gavage vs. intraperitoneal injection)	Calcemic response 48 hours after the dose (D-deficient CD-1 mice; D-deficient mice, analog doses exceeding thirty times that of the natural hormone, 48 hours)	Bone calcium mobilization activity (serum calcium change), overall (D-deficient CD-1 mice)	EC50 [1] [nM]
C=C1/C(=C\C=C2/CCC[C@]3(C)[C@@H]([C@H](C)CCCC(C)(C)O)CC[C@@H]23)C[C@@H](O)C[C@@H]1O [1,25(OH)2D3, 1α,25-dihydroxyvitamin D3, reference compound]		2									increased serum calcium levels	0.2
